# Data taken from US20020188026A1, “Methods of sterilizing with dipercarboxylic acids” (Lynntech, Inc., priority 2000, published 2002).
# “And” between values parts separate entries of the source, which are not always exact repeats. Identical values can stand only once.
# Columns and labels:
# [1] = tested on: Staphylococcus aureus; assay: Zone of inhibition test; assay type: cell-based; conditions: S. aureus, 20 μL on 6 mm disc, duplicate experiments
# Description: (§1) Zone of inhibition tests are qualitative screens for the inhibitory effect of the compound being tested. Clear zones created by a compound on a bacterial lawn indicates bacteriostatic ability and possible bactericidal capability and the size of the zone of inhibition is a semi-qualitative measure of the strength of the compound. The procedure involved creating lawns of bacteria by spreading 100 μL of broth culture evenly on nutrient agar plates. The bacteria were drawn from broth cultures that had recently reached maximum density. The organisms were Staphylococcus aureus, Psuedomonas aeruginosa, and Escherichia coli. Sterile, 6 mm, white paper discs were placed in the middle of each bacterial lawn. 20 μL of treatment were dispensed onto the surface of each disc. The treatments were: 1.0% and 0.033% diperglutaric acid, 1.0% glutaric acid in water. Each treatment was performed in duplicate for each organism. The plates were incubated at 37° C. for 18-24 hours. All zones were then measured in millimeters across the diameter of the zone of inhibition.
# [2] = tested on: Escherichia coli; assay: Zone of inhibition test; assay type: cell-based; conditions: E. coli, 20 μL on 6 mm disc, duplicate experiments
# Description: as §1
# [3] = tested on: Psuedomonas aeruginosa; assay: Zone of inhibition test; assay type: cell-based; conditions: P. aeruginosa, 20 μL on 6 mm disc, duplicate experiments
# Description: as §1
# [4] = Crude estimate of solubility in water; assay type: physicochemical; conditions: crude experiment, estimated
# From the text: A crude experiment was done to first estimate the solubility in water of diperglutaric acid (C5), dipersuberic acid (C8), and dipersebacic acid (C10) prepared in accordance with Example 1. It was estimated that the limit of solubility of these peracids in water was 10%, 0.8%, and 0.1% wt/v for diperglutaric, dipersuberic, and dipersebacic, respectively.
# [5] = tested on: S. aureus; assay: Biopsy punch enumeration; assay type: cell-based; conditions: 1% treatment
# Description: (§2) Biopsy punch enumeration is an extension of the zone of inhibition test, which involves enumerating organisms on the surface or within a removed core (punch). This test provides a quantitative analysis of the viable organisms remaining after treatment. This procedure was carried out exactly the same as the zone of inhibition testing. After incubation, however, the disc was removed from the plate and a 6-mm core was taken with a sterile, disposable biopsy punch precisely in the location where the disc had been removed. The same three organisms were used and the following treatments were sampled in duplicate: 1.0% diperglutaric acid and 1.0% glutaric acid in water. The core of each plate was aseptically placed in a microcentrifuge tube with 1 ml of sterile 0.85% saline solution and placed on a vortex for 5 minutes. These samples were diluted and plated in duplicate on nutrient agar and allowed to incubate at 37° C. for 18-24 hours for enumeration.
# [6] = tested on: E. coli; assay: Biopsy punch enumeration; assay type: cell-based; conditions: 1% treatment
# Description: as §2
# [7] = tested on: P. aeruginosa; assay: Biopsy punch enumeration; assay type: cell-based; conditions: 1% treatment
# Description: as §2
# [8] = tested on: Bacillus subtilis spores; assay: Sporicidal testing, spores heat fixed to glass slides; assay type: cell-based; conditions: for Log10 post-disinfection count (cfu/coupon): pre-disinfection 6.69
# Description: Additional spore testing experiments were done with diperglutaric acid. In this example, the diperglutaric acid was dissolved in a 90% water and 10% ethanol solution and used to kill Bacillus subtilis spores. […] Sporicidal capabilities of diperglutaric acid were tested at various concentrations. These procedures called for a 30-minute treatment of Bacillus subtilis spores heat fixed to glass slides. Glass slides were cut in half lengthwise. A suspension of spores, obtained from Steris Corporation of Mentor, Ohio (order #Na026) in 10% bovine serum albumin (as a simulated organic load) was prepared at a concentration of 1.2×10^8 spores per mL. 100 μL of this suspension was heat-fixed to each glass slide. These slides were immersed in the following dilutions of the diperglutaric acid: 2%, 1%, 0.3%, 0.1%, and 0.03%.
# Control slides were treated in glutaric acid: 2% and 1% in a 10% ethanol/water solution. All treatment concentrations were tested in duplicate. The spore coupons were immersed in 30 ml of test solution for 30 minutes. Following the treatment, the slides were rinsed in sterile water to remove residual acid. Each slide was then placed in a sterile 15-ml test tube containing 2 ml of sterile water. These tubes were sonicated for one hour to resuspend all spores. The sonicated slides were removed from the test tubes. The remaining solutions were serially diluted, plated in duplicate on nutrient agar and incubated for 18-24 hours at 37° C.
# The control values (pre-disinfection counts) were obtained from spore carriers immersed in sterile distilled water for 30 minutes prior to rinsing, recovery, and enumeration. The average log10 recovery from these controls was log106.69 per carrier. This compares favorably with the initial number of spores added, which was log107.08. The number of viable spores recovered was 40% of the number initially applied. […] Losses of 90% or less are generally considered acceptable in this type of experiment. […] A log reduction of less than log100.5cfu/carrier was achieved. Thus, the unreacted parent carboxylic acid has little effect on spores. […] Even at a concentration of 0.33%, the diperglutaric acid's effect on spores was similar to that of 2% glutaraldehyde.
# [9] = concentrated peracid solution; cited from earlier work
# [10] = 2.0% freshly prepared glutaraldehyde preparation
structure (smiles),measurement,setting,value
"O=C(CCCC(=O)OO)OO [Diperglutaric acid, diperglutaric acid]",Diameter of Zones of Inhibition,[1]; 0.033%,10 mm and 9 mm
same,Diameter of Zones of Inhibition,[1]; 1% in water,"13 mm, 13 mm"
same,Diameter of Zones of Inhibition,[2]; 0.033%,"10 mm, 10 mm"
same,Diameter of Zones of Inhibition,[2]; 1% in water,12 mm and 13 mm
same,Diameter of Zones of Inhibition,[3]; 0.033%,10 mm and 11 mm
same,Diameter of Zones of Inhibition,[3]; 1% in water,"12 mm, 12 mm"
same,limit of solubility in water,[4],10 % wt/v
same,Log10 reduction (cfu/6 mm diameter sample),[5],8.11 cfu/6 mm diameter sample
same,Log10 reduction (cfu/6 mm diameter sample),[6],7.44 log10
same,Log10 reduction (cfu/6 mm diameter sample),[7],7.53 cfu/6 mm diameter sample
same,Average log10 postdisinfection count (cfu/coupon),"[8]; 0.033% in 10% EtOH, 30 minutes",4.99 cfu/coupon
same,Average log10 reduction (cfu/coupon),"[8]; 0.033% in 10% EtOH, 30 minutes",1.70 cfu/coupon
same,Average log10 postdisinfection count (cfu/coupon),"[8]; 0.1% in 10% EtOH, 30 minutes",4.72 cfu/coupon
same,Average log10 reduction (cfu/coupon),"[8]; 0.1% in 10% EtOH, 30 minutes",1.97 cfu/coupon
same,Average log10 postdisinfection count (cfu/coupon),"[8]; 0.33% in 10% EtOH, 30 minutes",3.57 cfu/coupon
same,Average log10 reduction (cfu/coupon),"[8]; 0.33% in 10% EtOH, 30 minutes",3.12 cfu/coupon
same,Log10 post-disinfection count (cfu/coupon),"[8]; 0.33% in 10% EtOH, 30 minutes",3.62 cfu/coupon and 3.52 cfu/coupon
same,viable spores recovered from carriers,[8]; 1% and 2% for 30 minutes,no viable spores were recovered
same,Average log10 postdisinfection count (cfu/coupon),"[8]; 1.0% in 10% EtOH, 30 minutes",<1.0 cfu/coupon
same,Average log10 reduction (cfu/coupon),"[8]; 1.0% in 10% EtOH, 30 minutes",6.69 cfu/coupon
same,Average log10 postdisinfection count (cfu/coupon),"[8]; 2.0% in 10% EtOH, 30 minutes",<1.0 cfu/coupon
same,Average log10 reduction (cfu/coupon),"[8]; 2.0% in 10% EtOH, 30 minutes",6.69 cfu/coupon
"O=CCCCC=O [Glutaraldehyde, reference compound]",Average log10 postdisinfection count (cfu/coupon),[8]; [10],3.10 cfu/coupon
same,Average log10 reduction (cfu/coupon),[8]; [10],3.05 cfu/coupon
"O=C(O)CCCC(=O)O [Glutaric acid, reference compound]",Diameter of Zones of Inhibition,[1]; 1% in water,No zone
same,Diameter of Zones of Inhibition,[2]; 1% in water,No zone
same,Diameter of Zones of Inhibition,[3]; 1% in water,No zone
same,Log10 reduction (cfu/6 mm diameter sample),[5],0.63 cfu/6 mm diameter sample
same,Log10 postdisinfection count (cfu/6 mm diameter sample),[5]; predisinfection 8.11,7.48 cfu/6 mm diameter sample
same,Log10 postdisinfection count (cfu/6 mm diameter sample),[6]; predisinfection 7.44,6.75 cfu/6 mm diameter sample
same,Log10 reduction (cfu/6 mm diameter sample),[7],0.00 cfu/6 mm diameter sample
same,Log10 postdisinfection count (cfu/6 mm diameter sample),[7]; predisinfection 7.53,7.57 cfu/6 mm diameter sample
same,Average log10 postdisinfection count (cfu/coupon),"[8]; 1.0% in 10% EtOH, 30 minutes",6.23 cfu/coupon
same,Average log10 reduction (cfu/coupon),"[8]; 1.0% in 10% EtOH, 30 minutes",0.46 cfu/coupon
same,Log10 post-disinfection count (cfu/coupon),"[8]; 1.0% in 10% EtOH, 30 minutes",6.26 cfu/coupon and 6.19 cfu/coupon
same,Average log10 postdisinfection count (cfu/coupon),"[8]; 2.0% in 10% EtOH, 30 minutes",6.26 cfu/coupon
same,Average log10 reduction (cfu/coupon),"[8]; 2.0% in 10% EtOH, 30 minutes",0.43 cfu/coupon
same,Log10 post-disinfection count (cfu/coupon),"[8]; 2.0% in 10% EtOH, 30 minutes",6.27 cfu/coupon and 6.24 cfu/coupon
same,sporicidal effectiveness,[8]; concentrations of 1% and 2% for 30 minutes,not an effective sporicidal agent
O=C(CCCCC(=O)OO)OO [diperadipic acid],solubility for peracid concentrate solution,[9],not soluble enough to prepare an adequate peracid concentrate solution
O=C(CCCCCCCCC(=O)OO)OO [dipersebacic acid],limit of solubility in water,[4],0.1 % wt/v
O=C(CCCCCCC(=O)OO)OO [dipersuberic acid],limit of solubility in water,[4],0.8 % wt/v
"O=C(CCC(=O)OO)OO [dipersuccinic acid, reference compound]",stability of peracid concentrate,[9],did not form stable peracid concentrates
